According to BindingDB's records for doi:10.1021/jm00391a032 (1987):

Each compound was assayed against Beta-lactamase/penicillinase (Bacillus sp.) (assay: Inhibitory activity against Beta-lactamase from Bacillus sp. using penicillin G as substrate).
C[C@]1(Cn2cc(N)nn2)[C@H](C(=O)O)C2C(=O)CC2S1(=O)=O (some centres not stated) was tested, and the IC50 was 700 nM. COC(=O)c1nnn(C[C@@]2(C)[C@H](C(=O)O)C3C(=O)CC3S2(=O)=O)c1C(=O)OC (some centres not stated) showed an IC50 of 300 nM. CCOC(=O)c1cn(C[C@@]2(C)[C@H](C(=O)O)C3C(=O)CC3S2(=O)=O)nn1 (some centres not stated) showed an IC50 of 54 nM. With COC(=O)c1cnnn1C[C@@]1(C)[C@H](C(=O)O)C2C(=O)CC2S1(=O)=O (some centres not stated) the IC50 was 300 nM. Compound C[C@]1(Cn2nncc2C(=O)O)[C@H](C(=O)O)C2C(=O)CC2S1(=O)=O (some centres not stated) has an IC50 of 1700 nM. In the case of C[C@]1(Cn2cc([Si](C)(C)C)nn2)[C@H](C(=O)O)C2C(=O)CC2S1(=O)=O (some centres not stated), the IC50 is reported as 510 nM. In the case of CCOC(=O)c1cnnn1C[C@@]1(C)[C@H](C(=O)O)C2C(=O)CC2S1(=O)=O (some centres not stated), the IC50 is reported as 340 nM.
